# Measurements from the supplement of paper PMC10307832.
# Key:
# Test in all cases: relative viability (nuclei count vs DMSO), 5 days (fraction); higher = more cells survive
# 201T = system: 201T
# In short: (§1)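 After 5 days of treatment, lung cancer cells in 1536-well plates were fixed and stained in a single step (final 0.05% Triton X-100, 1% formaldehyde, 1 ug/ml Hoechst) and their nuclei counted on 4× images. Treatment had been applied by pin tool the day after seeding as one drug alone or as a fixed anchor-drug dose with five library-drug doses (not always all listed) in √10 steps. Relative viability is the nuclei count of treated wells divided by that of vehicle wells, and values are medians of duplicate plates.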
# NCI-H322M = system: NCI-H322M
# In short: as §1
# H3255 = system: H3255
# In short: as §1
# LK-2 = system: LK-2
# In short: as §1
# NCI-H596 = system: NCI-H596
# In short: as §1
# NCI-H2087 = system: NCI-H2087
# In short: as §1
# NCI-H2170 = system: NCI-H2170
# In short: as §1
# NCI-H2126 = system: NCI-H2126
# In short: as §1
# LXF-289 = system: LXF-289
# In short: as §1
# CAL-12T = system: CAL-12T
# In short: as §1
# NCI-H441 = system: NCI-H441
# In short: as §1
# EMC-BAC-2 = system: EMC-BAC-2
# In short: as §1
# NCI-H1755 = system: NCI-H1755
# In short: as §1
# NCI-H2009 = system: NCI-H2009
# In short: as §1
# NCI-H647 = system: NCI-H647
# In short: as §1
# HOP-62 = system: HOP-62
# In short: as §1
# SW 900 = system: SW 900
# In short: as §1
# NCI-H1651 = system: NCI-H1651
# In short: as §1
# NCI-H1734 = system: NCI-H1734
# In short: as §1
# NCI-H1563 = system: NCI-H1563
# In short: as §1
# ABC-1 = system: ABC-1
# In short: as §1
smiles,measurement,setting,value
COCC1(CO)C(=O)C2CCN1CC2 (stereo not drawn) [PRIMA-1MET] + COc1cc2c(Oc3ccc(NC(=O)C4(C(=O)Nc5ccc(F)cc5)CC4)cc3F)ccnc2cc1OCCCN1CCOCC1 [Foretinib] (partner 0.25 µM),relative viability,201T; first compound 0.2 µM,1.33
same,relative viability,201T; first compound 0.6325 µM,1.09
same,relative viability,201T; first compound 2 µM,0.97
same,relative viability,201T; first compound 6.325 µM,1.15
same,relative viability,201T; first compound 20 µM,1.08
same,relative viability,NCI-H322M; first compound 0.2 µM,1.14
same,relative viability,NCI-H322M; first compound 0.6325 µM,0.911
same,relative viability,NCI-H322M; first compound 6.325 µM,1.18
same,relative viability,NCI-H322M; first compound 20 µM,0.931
same,relative viability,H3255; first compound 0.2 µM,0.822
same,relative viability,H3255; first compound 0.6325 µM,0.947
same,relative viability,H3255; first compound 2 µM,0.807
same,relative viability,H3255; first compound 6.325 µM,1.05
same,relative viability,H3255; first compound 20 µM,0.924
same,relative viability,LK-2; first compound 0.2 µM,1.4
same,relative viability,LK-2; first compound 0.6325 µM,1.16
same,relative viability,LK-2; first compound 2 µM,0.567
same,relative viability,LK-2; first compound 6.325 µM,0.752
same,relative viability,LK-2; first compound 20 µM,0.147
same,relative viability,NCI-H596; first compound 0.2 µM,0.91
same,relative viability,NCI-H596; first compound 0.6325 µM,0.924
same,relative viability,NCI-H596; first compound 2 µM,0.697
same,relative viability,NCI-H596; first compound 6.325 µM,0.318
same,relative viability,NCI-H596; first compound 20 µM,0.0971
same,relative viability,NCI-H2087; first compound 0.2 µM,1.29
same,relative viability,NCI-H2087; first compound 0.6325 µM,1.17
same,relative viability,NCI-H2087; first compound 2 µM,0.932
same,relative viability,NCI-H2087; first compound 6.325 µM,1.02
same,relative viability,NCI-H2087; first compound 20 µM,0.632
same,relative viability,NCI-H2170; first compound 0.2 µM,1.04
same,relative viability,NCI-H2170; first compound 0.6325 µM,0.921
same,relative viability,NCI-H2170; first compound 2 µM,0.945
same,relative viability,NCI-H2170; first compound 6.325 µM,1.01
same,relative viability,NCI-H2170; first compound 20 µM,0.94
same,relative viability,NCI-H2126; first compound 0.2 µM,1.3
same,relative viability,NCI-H2126; first compound 0.6325 µM,0.993
same,relative viability,NCI-H2126; first compound 2 µM,1.22
same,relative viability,NCI-H2126; first compound 6.325 µM,1.23
same,relative viability,NCI-H2126; first compound 20 µM,1.13
same,relative viability,LXF-289; first compound 0.2 µM,1.05
same,relative viability,LXF-289; first compound 0.6325 µM,0.95
same,relative viability,LXF-289; first compound 2 µM,0.993
same,relative viability,LXF-289; first compound 6.325 µM,1.02
same,relative viability,LXF-289; first compound 20 µM,0.949
same,relative viability,CAL-12T; first compound 0.2 µM,1.33
same,relative viability,CAL-12T; first compound 0.6325 µM,1.23
same,relative viability,CAL-12T; first compound 2 µM,1
same,relative viability,CAL-12T; first compound 6.325 µM,1.16
same,relative viability,CAL-12T; first compound 20 µM,0.939
same,relative viability,NCI-H441; first compound 0.2 µM,0.954
same,relative viability,NCI-H441; first compound 0.6325 µM,0.908
same,relative viability,NCI-H441; first compound 2 µM,0.988
same,relative viability,NCI-H441; first compound 6.325 µM,1
same,relative viability,NCI-H441; first compound 20 µM,0.496
same,relative viability,EMC-BAC-2; first compound 0.2 µM,1.17
same,relative viability,EMC-BAC-2; first compound 0.6325 µM,1.01
same,relative viability,EMC-BAC-2; first compound 6.325 µM,1.04
same,relative viability,EMC-BAC-2; first compound 20 µM,1.03
same,relative viability,NCI-H1755; first compound 0.2 µM,1.02
same,relative viability,NCI-H1755; first compound 0.6325 µM,0.932
same,relative viability,NCI-H1755; first compound 2 µM,0.809
same,relative viability,NCI-H1755; first compound 6.325 µM,0.907
same,relative viability,NCI-H1755; first compound 20 µM,0.867
same,relative viability,NCI-H2009; first compound 0.2 µM,1.33
same,relative viability,NCI-H2009; first compound 0.6325 µM,1.17
same,relative viability,NCI-H2009; first compound 2 µM,1.22
same,relative viability,NCI-H2009; first compound 6.325 µM,1.22
same,relative viability,NCI-H2009; first compound 20 µM,0.52
same,relative viability,NCI-H647; first compound 0.2 µM,1.29
same,relative viability,NCI-H647; first compound 0.6325 µM,0.973
same,relative viability,NCI-H647; first compound 2 µM,1.08
same,relative viability,NCI-H647; first compound 6.325 µM,1.22
same,relative viability,NCI-H647; first compound 20 µM,1.16
same,relative viability,HOP-62; first compound 0.2 µM,1.18
same,relative viability,HOP-62; first compound 0.6325 µM,1.07
same,relative viability,HOP-62; first compound 2 µM,0.931
same,relative viability,HOP-62; first compound 6.325 µM,1.1
same,relative viability,HOP-62; first compound 20 µM,0.799
same,relative viability,SW 900; first compound 0.2 µM,0.928
same,relative viability,SW 900; first compound 0.6325 µM,1.13
same,relative viability,SW 900; first compound 2 µM,0.699
same,relative viability,SW 900; first compound 6.325 µM,0.451
same,relative viability,SW 900; first compound 20 µM,0.051
same,relative viability,NCI-H1651; first compound 0.2 µM,0.87
same,relative viability,NCI-H1651; first compound 0.6325 µM,0.578
same,relative viability,NCI-H1651; first compound 2 µM,0.77
same,relative viability,NCI-H1651; first compound 6.325 µM,0.933
same,relative viability,NCI-H1651; first compound 20 µM,0.827
same,relative viability,NCI-H1734; first compound 0.2 µM,1.04
same,relative viability,NCI-H1734; first compound 0.6325 µM,0.741
same,relative viability,NCI-H1734; first compound 2 µM,0.741
same,relative viability,NCI-H1734; first compound 6.325 µM,0.759
same,relative viability,NCI-H1734; first compound 20 µM,0.0666
same,relative viability,NCI-H1563; first compound 0.2 µM,1.05
same,relative viability,NCI-H1563; first compound 0.6325 µM,1
same,relative viability,NCI-H1563; first compound 2 µM,0.838
same,relative viability,NCI-H1563; first compound 6.325 µM,0.911
same,relative viability,NCI-H1563; first compound 20 µM,0.288
same,relative viability,ABC-1; first compound 0.2 µM,1.19
same,relative viability,ABC-1; first compound 0.6325 µM,0.937
same,relative viability,ABC-1; first compound 2 µM,1.25
same,relative viability,ABC-1; first compound 6.325 µM,1.03
same,relative viability,ABC-1; first compound 20 µM,0.505
